Common to all, as to type: binding
In test [1] the target is T1, recombinant CREBBP bromodomain (Homo sapiens, UniProt Q92793).
T1 construct: recombinant CREBBP bromodomain obtained from BPS Bioscience, USA; purchased BPS Bioscience, USA
The test is described as follows: CBP TR-FRET displacement assay. The settings on record: for inhibition at 10 µM: compound at 10 μM; for IC50: dose-response, read-out: IC50 (group A, B, C). In a few lines: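 CREBBP bromodomain (50 nM) preincubated 30 min at room temperature with 500 nM biotinylated ligand in HEPES pH 7.5 buffer with TCEP, then 60 min with compound. Eu-anti-His/APC-streptavidin TR-FRET 665/615 nm ratio read; IC50 from sigmoidal dose-response fit.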

Test [2] concerns the target T2, recombinant P300 bromodomain (Homo sapiens, UniProt Q09472).
T2 construct: recombinant P300 bromodomain obtained from BPS Bioscience, USA; purchased BPS Bioscience, USA
T2 sequence (Q09472 1049-1156 limits assumed): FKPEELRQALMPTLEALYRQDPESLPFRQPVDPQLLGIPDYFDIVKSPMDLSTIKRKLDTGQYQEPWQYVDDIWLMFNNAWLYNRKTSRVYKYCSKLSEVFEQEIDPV
The test can be described thus: P300 TR-FRET displacement assay. Particulars: dose-response, read-out: IC50 (group A, B, C). The procedure: The potency of compounds to inhibit P300 enzyme was tested in a TR-FRET displacement assay using recombinant P300 bromodomain obtained from BPS Bioscience, USA. The assay buffer was 50 mM HEPES (pH 7.5), 50 mM NaCl, 0.008% Brij 35, 0.01% BSA, 1 mM TCEP. 50 nM of P300 & 500 nM of Biotinylated ligand was incubated at room temperature for 30 minutes, the reaction was initiated by adding the pre-incubated enzyme ligand mixture to the test compounds. After 60 min incubation, the reaction was stopped by the addition of stop mix containing 1 nM of LANCE Europium-anti-6xHis antibody (Perkin Elmer, USA) and 40 nM of Sure Light Allophycocyanin-Streptavidin (Perkin Elmer, USA). Fluorescence emission of the samples at 665 and 615 nm were measured at an excitation of 340 nm and their ratio was plotted against the compound concentrations to generate dose-response curve.
(§1) Selected compounds of the present invention were screened in the above-mentioned assay procedures and IC50 values were determined by fitting the dose-response data to sigmoidal curve fitting equation using Graph pad prism software V7.

In test [3] the target is T3, recombinant BRD4 FL bromodomain (Homo sapiens, UniProt O60885).
T3 construct: fused on or other part: 6xHis tag, inferred from detection with Mab ANTI 6HIS-XL665
The test can be described thus: BRD4 FL TR-FRET displacement assay. Particulars: BRD4 FL; for inhibition at 10 µM: compound at 10 μM, read-out: % Inhibition (10 μM); for IC50: dose-response, read-out: IC50 (group A, B, C). The procedure:
The potency of compounds to inhibit BRD4 FL enzyme was tested in a TR-FRET displacement assay using recombinant BRD4 FL bromodomain obtained In-house. The assay buffer was 50 mM HEPES (pH 7.5), 50 mM NaCl, 500 μM CHAPS. 10 nM of BRD4 FL & 300 nM of Biotinylated Acetyl histone H4 (Lys 5, 8, 12, 16) (Millipore, USA) was incubated at room temperature for 30 minutes, the reaction was initiated by adding the pre-incubated enzyme ligand mixture to the test compounds. After 30 min incubation, the reaction was stopped by the addition of stop mix containing 1 nM of Europium Streptavidin cryptate (Cisbio, USA) and 5 nM of Mab ANTI 6HIS-XL665 (Cisbio, USA) dilutes in assay buffer containing 2.4M Potassium Fluoride. Fluorescence emission of the samples at 665 and 615 nm were measured at an excitation of 340 nm and their ratio was plotted against the compound concentrations to generate dose-response curve. The percent inhibition of the test compounds is calculated using the ratio of enzyme activity controls.
as §1
(In general: In TR-FRET formats the signal depends on donor and acceptor labels being close together.)

Usually inhibition stands for the drop in the measured response relative to a control, in per cent. The term IC50 denotes the point on the concentration scale where inhibition reaches its midpoint.

T1 sequence (Q92793 1085-1192 limits assumed): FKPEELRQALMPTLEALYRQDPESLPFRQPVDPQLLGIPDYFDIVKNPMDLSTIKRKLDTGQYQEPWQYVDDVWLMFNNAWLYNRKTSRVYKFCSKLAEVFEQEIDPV

In the case of `Cc1cc2c(N3CCN(C)c4cc(-c5cnn(C)c5)c(C#N)cc43)cc(OCC3CCCN(C)C3)cc2n(C)c1=O` (single isomer, unassigned) [Example 247, 4-(1,3-Dimethyl-7-((1-methylpiperidin-3-yl)methoxy)-2-oxo-1,2-dihydroquinolin-5-yl)-1-methyl-7-(1-methyl-1H-pyrazol-4-yl)-1,2,3,4-tetrahydroquinoxaline-6-carbonitrile], in test [1], the inhibition at 10 µM came to 95% and the IC50 was under 50 nM. In test [2], the half-maximal inhibitory concentration (IC50) was under 25 nM.

On to `COc1cc(N2CCN(C)c3cc(-c4cnn(C)c4)c(C#N)cc32)c2cc(C)c(=O)n(C)c2c1` [Example 1, 4-(7-Methoxy-1,3-dimethyl-2-oxo-1,2-dihydroquinolin-5-yl)-1-methyl-7-(1-methyl-1H-pyrazol-4-yl)-1,2,3,4-tetrahydroquinoxaline-6-carbonitrile], for which, in test [1], the inhibition at 10 µM came to 99%. For the same compound, the IC50 in test [1] is under 50 nM; in test [2], under 25 nM.

For the compound `Cc1cc2c(N3CCN(C)c4cc(-c5cnn(C)c5)c(C#N)cc43)cccc2[nH]c1=O` [Example 2, 1-methyl-7-(1-methyl-1H-pyrazol-4-yl)-4-(3-methyl-2-oxo-1,2-dihydroquinolin-5-yl)-1,2,3,4-tetrahydroquinoxaline-6-carbonitrile], the IC50 in test [1] was under 50 nM; in test [2], under 25 nM.

For `Cc1cc2c(N3CCN(C)c4cc(-c5cnn(C)c5)c(C#N)cc43)cc(OCC(=O)OC(C)(C)C)cc2n(C)c1=O` [Example 3, Tert-butyl 2-((5-(7-cyano-4-methyl-6-(1-methyl-1H-pyrazol-4-yl)-3,4-dihydroquinoxalin-1(2H)-yl)-1,3-dimethyl-2-oxo-1,2-dihydroquinolin-7-yl)oxy)acetate], the IC50 in test [1] was over 10 nM; in test [2], over 50000 nM.

For the compound `CNC(=O)CN1CCN(c2cc(N3CCOCC3)cc3c2cc(C)c(=O)n3C)c2cnc(-c3cnn(C)c3)cc21` [Example 165, 2-(4-(1,3-Dimethyl-7-morpholino-2-oxo-1,2-dihydroquinolin-5-yl)-7-(1-methyl-1H-pyrazol-4-yl)-3,4-dihydropyrido[3,4-b]pyrazin-1(2H)-yl)-N-methylacetamide], the half-inhibitory concentration (IC50) in test [1] was under 50 nM. Besides, in test [3], the inhibition at 10 µM worked out at 51%.

`COc1cc(N2CCCc3cc(N4CCN(C(C)=O)CC4)ncc32)c2cc(C)c(=O)n(C)c2c1` [Example 166, 5-(6-(4-Acetylpiperazin-1-yl)-3,4-dihydro-1,7-naphthyridin-1(2H)-yl)-7-methoxy-1,3-dimethylquinolin-2(1H)-one]: the half-maximal inhibitory concentration (IC50) in test [1] lay within 51 to 100 nM; in test [3] it was 2010 to 5000 nM.

`COc1cc(N2CCCc3cc(-c4cnn(C)c4)ncc32)c2cc(C)c(=O)n(C)c2c1` [Example 167]: the half-inhibitory concentration (IC50) in test [1] is under 50 nM; in test [3] it was 2010 to 5000 nM.

As to `COc1cc(N2CCOc3cc(-c4cnn(C)c4)ncc32)c2cc(C)c(=O)n(C)c2c1` [Example 170], the IC50 is under 50 nM in test [1] and 2010 to 5000 nM in test [3].

Consider `Cc1cc2c(N3CCCc4cc(-c5cnn(C)c5)c(C(F)F)cc43)cc(C3CCOCC3)cc2n(C)c1=O` [Example 179], for which the IC50 in test [1] is under 50 nM; in test [3], 2010 to 5000 nM.

`CNC(=O)C1CCN(c2cc3c(cc2C#N)N(c2cc(OC)cc4c2cc(C)c(=O)n4C)CCC3)CC1` [Example 181]: the IC50 was under 50 nM in test [1] and 2010 to 5000 nM in test [3].

`COc1cc(N2CCCc3cc(N4CCN(C(C)=O)CC4)c(C#N)cc32)c2cc(C)c(=O)n(C)c2c1` [Example 182]: the results for the IC50 in test [1] and in test [3] were under 50 nM and 2010 to 5000 nM, respectively.

Turning to `CNC(=O)c1ccc(-c2cc3c(cc2C#N)N(c2cc(OC)cc4c2cc(C)c(=O)n4C)CCC3)cn1` [Example 183], the concentration for half-maximal inhibition (IC50) in test [1] was under 50 nM; in test [3] it was 2010 to 5000 nM.

Take `CC1Cc2c(cc(N3CC[C@@H](O)C3)cc2N2CCCc3cc(-c4cnn(C)c4)c(C(F)F)cc32)N(C)C1=O` (stereo partly drawn) [Example 193, 7-(Difluoromethyl)-7′-((R)-3-hydroxypyrrolidin-1-yl)-1′,3′-dimethyl-6-(1-methyl-1H-pyrazol-4-yl)-3,3′,4,4′-tetrahydro-2H-[1,5′-biquinolin]-2′(1′H)-one]: the concentration for half-maximal inhibition (IC50) was over 10 nM in test [1] and 2010 to 5000 nM in test [3].

As to `CC(=O)N1CCN(c2cc3c(cc(C)c(=O)n3C)c(N3CCCc4cc(-c5cnn(C)c5)c(C(F)F)cc43)n2)CC1` [Example 200, 7-(4-Acetylpiperazin-1-yl)-5-(7-(difluoromethyl)-6-(1-methyl-1H-pyrazol-4-yl)-3,4-dihydroquinolin-1(2H)-yl)-1,3-dimethyl-1,6-naphthyridin-2(1H)-one], the IC50 in test [1] is under 50 nM; in test [3] it was 2010 to 5000 nM.

Regarding `CNC(=O)C1CCN(c2cc3c(cc(C)c(=O)n3C)c(N3CCN(C)c4cc(-c5cnn(C)c5)ncc43)n2)C1` (stereo not drawn) [Example 205], in test [1], the concentration for half-maximal inhibition (IC50) lay within 51 to 100 nM. In addition, the inhibition at 10 µM in test [3] was determined as 43%.

`Cc1cc2c(N3CCCc4cc(-c5cnn(C)c5)c(C(F)F)cc43)nc(N3CCC(O)C3)cc2n(C)c1=O` (stereo not drawn) [Example 208]: the concentration for half-maximal inhibition (IC50) in test [1] was under 50 nM; in test [3] it was 2010 to 5000 nM.

Take `Cc1cc2c(N3CCCc4cc(-c5cnn(C)c5)c(C(F)F)cc43)nc(N3CC4CCC(C3)O4)cc2n(C)c1=O` [Example 217]: the IC50 in test [1] was under 50 nM. In addition, the inhibition at 10 µM in test [3] came out at 46%.

Turning to `Cc1cc2c(N3CCCc4cc(-c5cnn(C)c5)c(C(F)F)cc43)nc(N3C4CCC3COC4)cc2n(C)c1=O` [Example 218], the values for the half-maximal inhibitory concentration (IC50) in test [1] and in test [3] were under 50 nM and 2010 to 5000 nM, respectively.

`Cc1cc2c(N3CCCc4cc(-c5cnn(C)c5)c(C(F)F)cc43)nc(N3C[C@@H]4C[C@H]3CO4)cc2n(C)c1=O` [Example 219]: the half-maximal inhibitory concentration (IC50) in test [1] is under 50 nM; in test [3], 2010 to 5000 nM.

For the compound `Cc1cc2c(N3CCN(C)c4cc(-c5cnn(C)c5)ncc43)nc(N3CC4(COC4)C3)cc2n(C)c1=O` [Example 220], the IC50 is over 10 nM in test [1] and 2010 to 5000 nM in test [3].

With `Cc1cc2c(N3CCCc4cc(-c5nnn(C)n5)c(C(F)F)cc43)nc(N3CCOCC3)cc2n(C)c1=O` [Example 226], the half-inhibitory concentration (IC50) in test [1] lay within 51 to 100 nM; in test [3], 2010 to 5000 nM.

Turning to `Cc1cc2c(N3CCCc4ccc(C(F)F)cc43)nc(N3CCC(O)C3)cc2n(C)c1=O` (stereo not drawn) [Example 230], in test [1], the IC50 is over 10 nM. Moreover, the inhibition at 10 µM in test [3] is 21%.

For `COc1cc2c(cc(C)c(=O)n2C)c(N2CCCc3cc(-c4cnn(C)c4)c(C(F)F)cc32)n1` [Example 233, 5-(7-(Difluoromethyl)-6-(1-methyl-1H-pyrazol-4-yl)-3,4-dihydroquinolin-1(2H)-yl)-7-methoxy-1,3-dimethyl-1,6-naphthyridin-2(1H)-one], the IC50 in test [1] is 51 to 100 nM; in test [3], 2010 to 5000 nM.

With `Cc1cc2c(N3CCCc4cc(-c5cnn(C)c5)c(C(F)F)cc43)nc(C3=CCOCC3)cc2n(C)c1=O` [Example 241, 5-(7-(Difluoromethyl)-6-(1-methyl-1H-pyrazol-4-yl)-3,4-dihydroquinolin-1(2H)-yl)-7-(3,6-dihydro-2H-pyran-4-yl)-1,3-dimethyl-1,6-naphthyridin-2(1H)-one], the 50% inhibitory concentration (IC50) in test [1] fell in the range of 51 to 100 nM. Also, in test [3], the inhibition at 10 µM is 22%.

With `CC1Cc2c(cc(N3CC[C@@H](O)C3)nc2N2CCCc3cc(-c4cnn(C)c4)c(C(F)F)cc32)N(C)C1=O` (stereo partly drawn) [Example 243, 5-(7-(Difluoromethyl)-6-(1-methyl-1H-pyrazol-4-yl)-3,4-dihydroquinolin-1(2H)-yl)-7-((R)-3-hydroxypyrrolidin-1-yl)-1,3-dimethyl-3,4-dihydro-1,6-naphthyridin-2(1H)-one], the IC50 in test [1] was over 10 nM; in test [3], 2010 to 5000 nM.

Turning to `Cc1cc2c(N3CCCc4cc(-c5cnn(C)c5)c(O)cc43)nc(N3CCC(O)C3)cc2n(C)c1=O` (stereo not drawn) [Example 245, 5-(7-Hydroxy-6-(1-methyl-1H-pyrazol-4-yl)-3,4-dihydroquinolin-1(2H)-yl)-7-(3-hydroxypyrrolidin-1-yl)-1,3-dimethyl-1,6-naphthyridin-2(1H)-one], the results for the IC50 in test [1] and in test [3] were under 50 nM and 2010 to 5000 nM, respectively.

Values taken from patent publication US20230322724A1, “HETEROCYCLIC COMPOUNDS AS CBP/EP300 BROMODOMAIN INHIBITORS” (AURIGENE ONCOLOGY LIMITED, priority 2020, published 2023).
